Experiments:
[1] = test system: Phakopsora pachyrhizi (F129L); test: Protective control of soybean rust on soybeans (PHAKPA P2); format: in vivo; details: for % PHAKPA (F129L) Disease level P2 at 4 ppm: protective P2, 4 ppm; for % PHAKPA (F129L) Disease level P2 at 4 ppm / % PHAKPA (F129L) Disease level P2 at 16 ppm: soybean rust F129L isolate; for % PHAKPA (F129L) Disease level P2 at 16 ppm: protective P2, 16 ppm
[2] = test system: Phakopsora pachyrhizi (F129L); test: Protective control of soybean rust on soybeans (PHAKPA P6); format: in vivo; details: for % PHAKPA (F129L) Disease level P6 at 4 ppm: protective P6, 4 ppm; for % PHAKPA (F129L) Disease level P6 at 4 ppm / % PHAKPA (F129L) Disease level P6 at 16 ppm: soybean rust F129L isolate; for % PHAKPA (F129L) Disease level P6 at 16 ppm: protective P6, 16 ppm

CNC(=O)/C(=N/OC)c1cccc(C)c1CO/N=C(\C)c1cc(F)ccc1F [compound 131]
% PHAKPA (F129L) Disease level P2 at 4 ppm [1]: 0% | % PHAKPA (F129L) Disease level P2 at 16 ppm [1]: 0% | PHAKPA (F129L) Disease level (%) P2 at 16 ppm ([1]; protective, inoculation 2 days after spraying, 16 ppm, % diseased leaf area): 0% | % PHAKPA (F129L) Disease level P6 at 4 ppm [2]: 2% | % PHAKPA (F129L) Disease level P6 at 16 ppm [2]: 0% | PHAKPA (F129L) Disease level (%) P6 at 16 ppm ([2]; protective, inoculation six days after spraying, 16 ppm, % diseased leaf area): 0%

CO/N=C(/C(=O)OC)c1cccc(C)c1CO/N=C(\C)c1ccccc1C(C)C [compound 218]
% PHAKPA (F129L) Disease level P2 at 4 ppm [1]: 100% | % PHAKPA (F129L) Disease level P2 at 16 ppm [1]: 87% | % PHAKPA (F129L) Disease level P6 at 4 ppm [2]: 100% | % PHAKPA (F129L) Disease level P6 at 16 ppm [2]: 100%

CNC(=O)/C(=N/OC)c1cccc(C)c1CO/N=C(\C)c1ccccc1C1CC1 [compound 219]
% PHAKPA (F129L) Disease level P2 at 4 ppm [1]: 60% | % PHAKPA (F129L) Disease level P2 at 16 ppm [1]: 8% | % PHAKPA (F129L) Disease level P6 at 4 ppm [2]: 87% | % PHAKPA (F129L) Disease level P6 at 16 ppm [2]: 43%

CNC(=O)/C(=N/OC)c1cccc(C)c1CO/N=C(\C)c1ccccc1C(C)C [compound 220]
% PHAKPA (F129L) Disease level P2 at 4 ppm [1]: 90% | % PHAKPA (F129L) Disease level P2 at 16 ppm [1]: 30% | % PHAKPA (F129L) Disease level P6 at 4 ppm [2]: 100% | % PHAKPA (F129L) Disease level P6 at 16 ppm [2]: 77%

CNC(=O)/C(=N/OC)c1cccc(C)c1CO/N=C(\C)c1ccccc1CC(C)C [compound 221]
% PHAKPA (F129L) Disease level P2 at 4 ppm [1]: 100% | % PHAKPA (F129L) Disease level P2 at 16 ppm [1]: 63% | % PHAKPA (F129L) Disease level P6 at 4 ppm [2]: 100% | % PHAKPA (F129L) Disease level P6 at 16 ppm [2]: 100%

CO/N=C(/C(=O)OC)c1cccc(C)c1CO/N=C(\C)c1ccccc1CC(F)(F)F [compound 222]
% PHAKPA (F129L) Disease level P2 at 4 ppm [1]: 100% | % PHAKPA (F129L) Disease level P2 at 16 ppm [1]: 57% | % PHAKPA (F129L) Disease level P6 at 4 ppm [2]: 100% | % PHAKPA (F129L) Disease level P6 at 16 ppm [2]: 93%

CNC(=O)/C(=N/OC)c1cccc(C)c1CO/N=C(\C)c1ccccc1CC(F)(F)F [compound 223]
% PHAKPA (F129L) Disease level P2 at 4 ppm [1]: 4% | % PHAKPA (F129L) Disease level P2 at 16 ppm [1]: 0% | % PHAKPA (F129L) Disease level P6 at 4 ppm [2]: 28% | % PHAKPA (F129L) Disease level P6 at 16 ppm [2]: 0%

CO/N=C(/C(=O)OC)c1cccc(C)c1CO/N=C(\C)c1ccccc1C#N [compound 224]
% PHAKPA (F129L) Disease level P2 at 4 ppm [1]: 97% | % PHAKPA (F129L) Disease level P2 at 16 ppm [1]: 100% | % PHAKPA (F129L) Disease level P6 at 4 ppm [2]: 100% | % PHAKPA (F129L) Disease level P6 at 16 ppm [2]: 100%

CNC(=O)/C(=N/OC)c1cccc(C)c1CO/N=C(\C)c1ccccc1C#N [compound 225]
% PHAKPA (F129L) Disease level P2 at 4 ppm [1]: 83% | % PHAKPA (F129L) Disease level P2 at 16 ppm [1]: 27% | % PHAKPA (F129L) Disease level P6 at 4 ppm [2]: 100% | % PHAKPA (F129L) Disease level P6 at 16 ppm [2]: 97%

CNC(=O)/C(=N/OC)c1cccc(C)c1CO/N=C(\C)c1cccc(OC/C(C)=N/OC)c1 [compound 226]
% PHAKPA (F129L) Disease level P2 at 4 ppm [1]: 28% | % PHAKPA (F129L) Disease level P2 at 16 ppm [1]: 3% | % PHAKPA (F129L) Disease level P6 at 4 ppm [2]: 57% | % PHAKPA (F129L) Disease level P6 at 16 ppm [2]: 7%

CO/N=C(\C)COc1cccc(/C(C)=N/OCc2c(C)cccc2/C(=N\OC)C(=O)OC)c1 [compound 227]
% PHAKPA (F129L) Disease level P2 at 4 ppm [1]: 100% | % PHAKPA (F129L) Disease level P2 at 16 ppm [1]: 47% | % PHAKPA (F129L) Disease level P6 at 4 ppm [2]: 100% | % PHAKPA (F129L) Disease level P6 at 16 ppm [2]: 57%

CNC(=O)/C(=N/OC)c1cccc(C)c1CO/N=C(\C)c1cc(Cl)cc(C(F)(F)F)c1 [compound 228]
% PHAKPA (F129L) Disease level P2 at 4 ppm [1]: 5% | % PHAKPA (F129L) Disease level P2 at 16 ppm [1]: 0% | % PHAKPA (F129L) Disease level P6 at 4 ppm [2]: 22% | % PHAKPA (F129L) Disease level P6 at 16 ppm [2]: 2%

CO/N=C(/C(=O)OC)c1cccc(C)c1CO/N=C(\C)c1ccc(C)c(C(F)(F)F)c1 [compound 229]
% PHAKPA (F129L) Disease level P2 at 4 ppm [1]: 27% | % PHAKPA (F129L) Disease level P2 at 16 ppm [1]: 2% | % PHAKPA (F129L) Disease level P6 at 4 ppm [2]: 77% | % PHAKPA (F129L) Disease level P6 at 16 ppm [2]: 6%

CNC(=O)/C(=N/OC)c1cccc(C)c1CO/N=C(\C)c1ccc(C)c(C(F)(F)F)c1 [compound 230]
% PHAKPA (F129L) Disease level P2 at 4 ppm [1]: 22% | % PHAKPA (F129L) Disease level P2 at 16 ppm [1]: 1% | % PHAKPA (F129L) Disease level P6 at 4 ppm [2]: 73% | % PHAKPA (F129L) Disease level P6 at 16 ppm [2]: 4%

CO/C=C(/C(=O)OC)c1cccc(C)c1CO/N=C(\C)c1cccc(C(F)(F)F)c1 [compound 231]
% PHAKPA (F129L) Disease level P2 at 4 ppm [1]: 0% | % PHAKPA (F129L) Disease level P2 at 16 ppm [1]: 0% | PHAKPA (F129L) Disease level (%) P2 at 4 ppm ([1]; protective, inoculation 2 days after spraying, 4 ppm, % diseased leaf area): 0% | % PHAKPA (F129L) Disease level P6 at 4 ppm [2]: 2% | % PHAKPA (F129L) Disease level P6 at 16 ppm [2]: 0% | PHAKPA (F129L) Disease level (%) P6 at 4 ppm ([2]; protective, inoculation six days after spraying, 4 ppm, % diseased leaf area): 2%

CNC(=O)/C(=C/OC)c1cccc(C)c1CO/N=C(\C)c1cccc(C(F)(F)F)c1 [compound 232]
% PHAKPA (F129L) Disease level P2 at 4 ppm [1]: 100% | % PHAKPA (F129L) Disease level P2 at 16 ppm [1]: 73% | % PHAKPA (F129L) Disease level P6 at 4 ppm [2]: 100% | % PHAKPA (F129L) Disease level P6 at 16 ppm [2]: 83%

CNC(=O)/C(=N/OC)c1cccc(C)c1CO/N=C(\C)c1c(F)ccc(C(F)(F)F)c1NC [compound 233]
% PHAKPA (F129L) Disease level P2 at 4 ppm [1]: 100% | % PHAKPA (F129L) Disease level P2 at 16 ppm [1]: 57% | % PHAKPA (F129L) Disease level P6 at 4 ppm [2]: 87% | % PHAKPA (F129L) Disease level P6 at 16 ppm [2]: 27%

CNC(=O)/C(=N/OC)c1cccc(C)c1CO/N=C(\CC1CC1)c1cccc(C(F)(F)F)c1 [compound 234]
% PHAKPA (F129L) Disease level P2 at 4 ppm [1]: 53% | % PHAKPA (F129L) Disease level P2 at 16 ppm [1]: 18% | % PHAKPA (F129L) Disease level P6 at 4 ppm [2]: 53% | % PHAKPA (F129L) Disease level P6 at 16 ppm [2]: 15%
